Results taken from ChEMBL document CHEMBL5346896, “Development of indolealkylamine derivatives as potential multi-target agents for COVID-19 treatment” (Eur J Med Chem, 2023).

Test system: SARS-CoV-2
Assay: Antiviral activity against SARS-CoV-2 spike pseudotyped lentivirus infected in HEK293 cells expressing human ACE2 assessed as inhibition of viral entry into cells at highest concentration preincubated with cell for 1 hrs followed by viral infection for 1 hrs and further replaced with fresh medium and measured 48 hrs post transduction by luminescence based luciferase reporter assay relative to …
Format: functional, Severe acute respiratory syndrome coronavirus 2, HEK293T
Conditions: time 2 hrs

With `COc1ccc2[nH]c(C(O)c3ccc(Cl)cc3)c(CCNC(C)=O)c2c1` (configuration not stated) the “inhibition (INH)” value was 70%.

With `COC(=O)NCCc1c(C(O)c2ccccc2)[nH]c2ccc(OC)cc12` (configuration not stated) the “inhibition (INH)” value was 70%.
